Measured values taken from patent US9326506B2, “Preparation method, agricultural composition and applications of natural brassinolide analogs” (CHENGDU NEWSUN CROPSCIENCE CO., LTD, priority 2012, dated 2016).

Tested on: rice
Test: Low temperature assay on rice seedlings
Assay type: in vivo
Experimental: According to a low temperature assay, we measured parameters including plant height, number of leaf, area of leaf, number of tiller, weight of root at low temperature to completely determine effects of the natural brassinolide analogues on the resistance to low temperature of a plant.
The natural brassinolide analogues, BR1, BR2, BR3, BR4, BR5 and BR6, used herein, were those prepared by the method of Example 1. Respectively the analogues were dissolved into 95% (V/V) ethanol solution, and then diluted with pure water to 1 mg/L, 0.1 mg/L, 0.01 mg/L, 0.001 mg/L and 0.0001 mg/L. In addition, pure water was used as a control.
After rice seeds were disinfected by using 5% sodium hypochlorite solution treatment, they were rinsed with distilled water until their pH>7, placed into a petri dish in a dark incubator, and cultured by using water at 30° C.±2° C. for 9 days. Then respectively the nine-day-old etiolated seedlings of rice were immersed in the above solutions containing different concentrations of the natural brassinolide analogues or pure water, and cultured at the temperature of 1° C., 2° C., 3° C., 4° C. and 5° C. for 24 hr. The parameters including plant height, area of leaf and weight of root after 3, 6, 9 and 12 days and number of leaf and number of tiller after 12 days were measured.

SMILES: CC(C)(O)CC[C@@H](O)[C@](C)(O)[C@H]1CC[C@@]2(O)[C@@H]3CC(=O)[C@@H]4C[C@@H](O)[C@@H](O)C[C@]4(C)[C@H]3CC[C@]12C [BR6]
- Height (0.01 mg/l, 3 °C, 9 days): 7.4 cm
- Weight of root (0.01 mg/l, 3 °C, 9 days): 2.9 g
- Area of leaf (0.01 mg/l, 3 °C, 12 days): 13.2 cm^2
- Height (0.01 mg/l, 3 °C, 12 days): 7.6 cm
- Number of leaf (0.01 mg/l, 3 °C, 12 days): 3
- Number of tiller (0.01 mg/l, 3 °C, 12 days): 2
- Weight of root (0.01 mg/l, 3 °C, 12 days): 2.9 g
- Area of leaf (0.01 mg/l, 4 °C, 3 days): 10.8 cm^2
- Height (0.01 mg/l, 4 °C, 3 days): 7.1 cm
- Weight of root (0.01 mg/l, 4 °C, 3 days): 2.5 g
- Area of leaf (0.01 mg/l, 4 °C, 6 days): 12.4 cm^2
- Height (0.01 mg/l, 4 °C, 6 days): 7.3 cm
- Weight of root (0.01 mg/l, 4 °C, 6 days): 2.6 g
- Area of leaf (0.01 mg/l, 4 °C, 9 days): 13.7 cm^2
- Height (0.01 mg/l, 4 °C, 9 days): 7.6 cm
- Weight of root (0.01 mg/l, 4 °C, 9 days): 2.9 g
- Area of leaf (0.01 mg/l, 4 °C, 12 days): 13.7 cm^2
- Height (0.01 mg/l, 4 °C, 12 days): 7.8 cm
- Number of leaf (0.01 mg/l, 4 °C, 12 days): 3
- Number of tiller (0.01 mg/l, 4 °C, 12 days): 2
- Weight of root (0.01 mg/l, 4 °C, 12 days): 3.0 g
- Area of leaf (0.01 mg/l, 5 °C, 3 days): 10.9 cm^2
- Height (0.01 mg/l, 5 °C, 3 days): 7.7 cm
- Weight of root (0.01 mg/l, 5 °C, 3 days): 2.8 g
- Area of leaf (0.01 mg/l, 5 °C, 6 days): 13.9 cm^2
- Height (0.01 mg/l, 5 °C, 6 days): 7.8 cm
- Weight of root (0.01 mg/l, 5 °C, 6 days): 3.0 g
- Area of leaf (0.01 mg/l, 5 °C, 9 days): 17.1 cm^2
- Height (0.01 mg/l, 5 °C, 9 days): 8.1 cm
- Weight of root (0.01 mg/l, 5 °C, 9 days): 3.4 g
- Area of leaf (0.01 mg/l, 5 °C, 12 days): 18 cm^2
- Height (0.01 mg/l, 5 °C, 12 days): 8.5 cm
- Number of leaf (0.01 mg/l, 5 °C, 12 days): 4
- Number of tiller (0.01 mg/l, 5 °C, 12 days): 3
- Weight of root (0.01 mg/l, 5 °C, 12 days): 3.9 g
- Area of leaf (0.1 mg/l, 1 °C, 3 days): 10.1 cm^2
- Height (0.1 mg/l, 1 °C, 3 days): 7.0 cm
- Weight of root (0.1 mg/l, 1 °C, 3 days): 2.8 g
- Area of leaf (0.1 mg/l, 1 °C, 6 days): 12 cm^2
- Height (0.1 mg/l, 1 °C, 6 days): 7.3 cm
- Weight of root (0.1 mg/l, 1 °C, 6 days): 3.0 g
- Area of leaf (0.1 mg/l, 1 °C, 9 days): 12.9 cm^2
- Height (0.1 mg/l, 1 °C, 9 days): 7.3 cm
- Weight of root (0.1 mg/l, 1 °C, 9 days): 3.4 g
- Area of leaf (0.1 mg/l, 1 °C, 12 days): 13.4 cm^2
- Height (0.1 mg/l, 1 °C, 12 days): 7.5 cm
- Number of leaf (0.1 mg/l, 1 °C, 12 days): 3
- Number of tiller (0.1 mg/l, 1 °C, 12 days): 3
- Weight of root (0.1 mg/l, 1 °C, 12 days): 3.7 g
- Area of leaf (0.1 mg/l, 2 °C, 3 days): 10.4 cm^2
- Height (0.1 mg/l, 2 °C, 3 days): 7.1 cm
- Weight of root (0.1 mg/l, 2 °C, 3 days): 2.9 g
- Area of leaf (0.1 mg/l, 2 °C, 6 days): 11.8 cm^2
- Height (0.1 mg/l, 2 °C, 6 days): 7.2 cm
- Weight of root (0.1 mg/l, 2 °C, 6 days): 3.0 g
- Area of leaf (0.1 mg/l, 2 °C, 9 days): 12.8 cm^2
- Height (0.1 mg/l, 2 °C, 9 days): 7.3 cm
- Weight of root (0.1 mg/l, 2 °C, 9 days): 3.1 g
- Area of leaf (0.1 mg/l, 2 °C, 12 days): 13 cm^2
- Height (0.1 mg/l, 2 °C, 12 days): 7.4 cm
- Number of leaf (0.1 mg/l, 2 °C, 12 days): 3
- Number of tiller (0.1 mg/l, 2 °C, 12 days): 3
- Weight of root (0.1 mg/l, 2 °C, 12 days): 3.2 g
- Area of leaf (0.1 mg/l, 3 °C, 3 days): 10.5 cm^2
- Height (0.1 mg/l, 3 °C, 3 days): 7.2 cm
- Weight of root (0.1 mg/l, 3 °C, 3 days): 2.5 g
- Area of leaf (0.1 mg/l, 3 °C, 6 days): 12 cm^2
- Height (0.1 mg/l, 3 °C, 6 days): 7.3 cm
- Weight of root (0.1 mg/l, 3 °C, 6 days): 2.6 g
- Area of leaf (0.1 mg/l, 3 °C, 9 days): 12.8 cm^2
- Height (0.1 mg/l, 3 °C, 9 days): 7.4 cm
- Weight of root (0.1 mg/l, 3 °C, 9 days): 2.8 g
- Area of leaf (0.1 mg/l, 3 °C, 12 days): 13.2 cm^2
- Height (0.1 mg/l, 3 °C, 12 days): 7.5 cm
- Number of leaf (0.1 mg/l, 3 °C, 12 days): 3
- Number of tiller (0.1 mg/l, 3 °C, 12 days): 2
- Weight of root (0.1 mg/l, 3 °C, 12 days): 2.9 g
- Area of leaf (0.1 mg/l, 4 °C, 3 days): 10.8 cm^2
- Height (0.1 mg/l, 4 °C, 3 days): 7.1 cm
- Weight of root (0.1 mg/l, 4 °C, 3 days): 2.5 g
- Area of leaf (0.1 mg/l, 4 °C, 6 days): 12.5 cm^2
- Height (0.1 mg/l, 4 °C, 6 days): 7.4 cm
- Weight of root (0.1 mg/l, 4 °C, 6 days): 2.7 g
- Area of leaf (0.1 mg/l, 4 °C, 9 days): 13.5 cm^2
- Height (0.1 mg/l, 4 °C, 9 days): 7.5 cm
- Weight of root (0.1 mg/l, 4 °C, 9 days): 2.9 g
- Area of leaf (0.1 mg/l, 4 °C, 12 days): 13.8 cm^2
- Height (0.1 mg/l, 4 °C, 12 days): 7.7 cm
- Number of leaf (0.1 mg/l, 4 °C, 12 days): 3
- Number of tiller (0.1 mg/l, 4 °C, 12 days): 2
- Weight of root (0.1 mg/l, 4 °C, 12 days): 3.1 g
- Area of leaf (0.1 mg/l, 5 °C, 3 days): 11.1 cm^2
- Height (0.1 mg/l, 5 °C, 3 days): 7.7 cm
- Weight of root (0.1 mg/l, 5 °C, 3 days): 2.9 g
- Area of leaf (0.1 mg/l, 5 °C, 6 days): 13.9 cm^2
- Height (0.1 mg/l, 5 °C, 6 days): 7.8 cm
- Weight of root (0.1 mg/l, 5 °C, 6 days): 3.2 g
- Area of leaf (0.1 mg/l, 5 °C, 9 days): 17.8 cm^2
- Height (0.1 mg/l, 5 °C, 9 days): 8.4 cm
- Weight of root (0.1 mg/l, 5 °C, 9 days): 3.5 g
- Area of leaf (0.1 mg/l, 5 °C, 12 days): 18.9 cm^2
- Height (0.1 mg/l, 5 °C, 12 days): 8.6 cm
- Number of leaf (0.1 mg/l, 5 °C, 12 days): 3
- Number of tiller (0.1 mg/l, 5 °C, 12 days): 2
- Weight of root (0.1 mg/l, 5 °C, 12 days): 4 g
- Area of leaf (1 mg/l, 1 °C, 3 days): 10 cm^2
- Height (1 mg/l, 1 °C, 3 days): 7.1 cm
- Weight of root (1 mg/l, 1 °C, 3 days): 2.8 g
- Area of leaf (1 mg/l, 1 °C, 6 days): 11.2 cm^2
- Height (1 mg/l, 1 °C, 6 days): 7.2 cm
- Weight of root (1 mg/l, 1 °C, 6 days): 3.1 g
- Area of leaf (1 mg/l, 1 °C, 9 days): 12.4 cm^2
- Height (1 mg/l, 1 °C, 9 days): 7.3 cm
- Weight of root (1 mg/l, 1 °C, 9 days): 3.4 g
- Area of leaf (1 mg/l, 1 °C, 12 days): 12.8 cm^2
- Height (1 mg/l, 1 °C, 12 days): 7.3 cm
- Number of leaf (1 mg/l, 1 °C, 12 days): 3
- Number of tiller (1 mg/l, 1 °C, 12 days): 3
- Weight of root (1 mg/l, 1 °C, 12 days): 3.9 g
- Area of leaf (1 mg/l, 2 °C, 3 days): 10.2 cm^2
- Height (1 mg/l, 2 °C, 3 days): 7.1 cm
- Weight of root (1 mg/l, 2 °C, 3 days): 2.8 g
- Area of leaf (1 mg/l, 2 °C, 6 days): 11.7 cm^2
- Height (1 mg/l, 2 °C, 6 days): 7.2 cm
- Weight of root (1 mg/l, 2 °C, 6 days): 3.0 g
- Area of leaf (1 mg/l, 2 °C, 9 days): 12.6 cm^2
- Height (1 mg/l, 2 °C, 9 days): 7.3 cm
- Weight of root (1 mg/l, 2 °C, 9 days): 3.2 g
- Area of leaf (1 mg/l, 2 °C, 12 days): 13.1 cm^2
- Height (1 mg/l, 2 °C, 12 days): 7.6 cm
- Number of leaf (1 mg/l, 2 °C, 12 days): 3
- Number of tiller (1 mg/l, 2 °C, 12 days): 3
- Weight of root (1 mg/l, 2 °C, 12 days): 3.9 g
- Area of leaf (1 mg/l, 3 °C, 3 days): 10.4 cm^2
- Height (1 mg/l, 3 °C, 3 days): 7.1 cm
- Weight of root (1 mg/l, 3 °C, 3 days): 2.5 g
- Area of leaf (1 mg/l, 3 °C, 6 days): 12.2 cm^2
- Height (1 mg/l, 3 °C, 6 days): 7.3 cm
- Weight of root (1 mg/l, 3 °C, 6 days): 2.6 g
- Area of leaf (1 mg/l, 3 °C, 9 days): 12.6 cm^2
- Height (1 mg/l, 3 °C, 9 days): 7.5 cm
- Weight of root (1 mg/l, 3 °C, 9 days): 2.9 g
- Area of leaf (1 mg/l, 3 °C, 12 days): 13.2 cm^2
- Height (1 mg/l, 3 °C, 12 days): 7.6 cm
- Number of leaf (1 mg/l, 3 °C, 12 days): 3
- Number of tiller (1 mg/l, 3 °C, 12 days): 2
- Weight of root (1 mg/l, 3 °C, 12 days): 2.9 g
- Area of leaf (1 mg/l, 4 °C, 3 days): 10.9 cm^2
- Height (1 mg/l, 4 °C, 3 days): 7.1 cm
- Weight of root (1 mg/l, 4 °C, 3 days): 2.5 g
- Area of leaf (1 mg/l, 4 °C, 6 days): 12 cm^2
- Height (1 mg/l, 4 °C, 6 days): 7.5 cm
- Weight of root (1 mg/l, 4 °C, 6 days): 2.6 g
- Area of leaf (1 mg/l, 4 °C, 9 days): 13.4 cm^2
- Height (1 mg/l, 4 °C, 9 days): 7.5 cm
- Weight of root (1 mg/l, 4 °C, 9 days): 3.0 g
- Area of leaf (1 mg/l, 4 °C, 12 days): 14 cm^2
- Height (1 mg/l, 4 °C, 12 days): 7.7 cm
- Number of leaf (1 mg/l, 4 °C, 12 days): 3
- Number of tiller (1 mg/l, 4 °C, 12 days): 2
- Weight of root (1 mg/l, 4 °C, 12 days): 3.2 g
- Area of leaf (1 mg/l, 5 °C, 3 days): 11.1 cm^2
- Height (1 mg/l, 5 °C, 3 days): 7.7 cm
- Weight of root (1 mg/l, 5 °C, 3 days): 2.9 g
- Area of leaf (1 mg/l, 5 °C, 6 days): 13.6 cm^2
- Height (1 mg/l, 5 °C, 6 days): 8.0 cm
- Weight of root (1 mg/l, 5 °C, 6 days): 3.6 g
- Area of leaf (1 mg/l, 5 °C, 9 days): 18.9 cm^2
- Height (1 mg/l, 5 °C, 9 days): 8.8 cm
- Weight of root (1 mg/l, 5 °C, 9 days): 3.7 g
- Area of leaf (1 mg/l, 5 °C, 12 days): 20 cm^2
- Height (1 mg/l, 5 °C, 12 days): 8.9 cm
- Number of leaf (1 mg/l, 5 °C, 12 days): 3
- Number of tiller (1 mg/l, 5 °C, 12 days): 2
- Weight of root (1 mg/l, 5 °C, 12 days): 4.5 g
- Effects on resistance to low temperature compared among analogues (in vivo): more than those of BR2, BR3 and BR4
